Test results taken from patent publication US8637670B2, “Imidazo [4,5-C]quinoline derivatives and their use in the treatment of tumors and/or inflammation” (Piramal Enterprises Limited, priority 2009, dated 2014).

Tests used:
[1] = test system: PC3; assay: Cytotoxicity, propidium iodide assay, PC3; assay type: cell-based; details: Homo sapiens, PC-3; Prostate, PC3, 48 hours treatment; read-out: IC50, C2a (PC3)
Procedure: (§1) The assay was designed as in the reference, Anticancer Drugs, 2002, 13, 1-8, the disclosure of which is incorporated by reference for the teaching of the assay.
(§2) Cells from cell lines as mentioned in the table given below were seeded at a density of 3000 cells/well in a white opaque 96-well plate. Following incubation at 37° C./5% CO2 for a period of 18-24 hours, the cells were treated with various concentrations (stock solution was prepared in DMSO and subsequent dilutions were made in media as per ATCC guidelines) of the compounds of Example 1-40 was for a period of 48 hours. At the end of treatment, the spent culture medium was discarded, the cells were washed with 1×PBS and 200 μl of 7 μg/ml propidium iodide was added to each well. The plates were frozen at −70° C. for at least 24 hours. For analysis, the plates were brought to RT, allowed to thaw and were read in PoleStar fluorimeter with the fluorescence setting. The percentage of viable cells in the non-treated set of wells was considered to be 100 and the percentage viability following treatment was calculated accordingly. IC50 values were calculated from graphs plotted using these percentages. Table 4 depicts the IC50 values of compounds of Example 1-40 in individual cell lines.
(§3) The abbreviations for the Cell Lines as used in Table 4 are: […]

[2] = test system: A2780; assay: Cytotoxicity, propidium iodide assay, A2780; assay type: cell-based; details: Homo sapiens; Ovarian, A2780, 48 hours treatment; read-out: IC50, C3a (A2780)
Procedure: as §1, §2, §3

[3] = test system: OVCAR 3; assay: Cytotoxicity, propidium iodide assay, OVCAR 3; assay type: cell-based; details: Homo sapiens; Ovarian, OVCAR 3, 48 hours treatment; read-out: IC50, C3b (OVCAR 3)
Procedure: as §1, §2, §3

[4] = test system: IL-6; assay: Human monocyte assay, LPS-stimulated IL-6 (ELISA); assay type: cell-based; details: human monocytes, 1 μg/ml LPS, 5 hours
Procedure: The assay was designed as in the reference, Physiol. Res., 2003, 52, 593-598, the disclosure of which is incorporated by reference for the teaching of the assay.
Peripheral blood mononuclear cells (hPBMC) were harvested from human blood and suspended in RPMI 1640 culture medium containing 10% FCS, 100 U/mL penicillin and […] streptomycin (assay medium). Monocytes in the hPBMCs were counted using a Coulter Counter following which the cells were resuspended at 2×10^5 monocytes/mL. A cell suspension containing 2×10^4 monocytes was aliquoted per well of a 96-well plate. Subsequently, the hPBMCs were incubated for 4-5 hours at 37° C. under 5% CO2 (During the incubation, the monocytes adhered to the bottom of 96-well plastic culture plate). Following the incubation, the non-adherent lymphocytes were washed with assay medium and the adherent monocytes re-fed with assay medium. After a 48-hour incubation period (37° C., 5% CO2), monocytes were pretreated with various concentrations of compounds of Example 1-40 (prepared in DMSO) or vehicle (0.5% DMSO) for 30 minutes and stimulated with 1 μg/ml LPS (Escherchia coli 0111:B4, Sigma Chemical Co., St. Louis, Mo.). The incubation was continued for 5 hours at 37° C., 5% CO2. Supernatants were harvested, assayed for IL-6 and TNF-α by ELISA as described by the manufacturer (BD Biosciences, USA). Dexamethasone (10 μM) was used as standard for this assay. The 50% inhibitory concentration (IC50) values were calculated by a nonlinear regression method. In all experiments, a parallel plate was run to ascertain the toxicity of compounds of Example 1-40. The toxicity was determined using the MTS assay as described in Am. J. Physiol. Cell Physiol., 2003, 285, C813-C822.

[5] = test system: U 373; assay: Cytotoxicity, propidium iodide assay, U 373; assay type: cell-based; details: Homo sapiens, U373 MG; Glioblastoma, U 373, 48 hours treatment; read-out: IC50, C7a (U 373)
Procedure: as §1, §2, §3

[6] = test system: H460; assay: Cytotoxicity, propidium iodide assay, H460; assay type: cell-based; details: Homo sapiens, NCI-H460; Lung, H460, 48 hours treatment; read-out: IC50, C1b (H460)
Procedure: as §1, §2, §3

[7] = molecular target: T1, PI3Kα kinase (Homo sapiens, UniProt P42336); assay: PI3Kα assay (32P incorporation into phosphatidylinositol, TLC densitometry); assay type: biochemical; details: At 100 nM
T1 construct: purchased Millipore, USA
Procedure: The assay was designed as in the reference, Cell, 2006, 125, 733-47 (Supplemental Data), the disclosure of which is incorporated by reference for the teaching of the assay.
The kinase reaction was carried out in a 25 μL volume in a 1.5 mL microcentrifuge tube. The reaction mixture consisted of kinase buffer (10 mM Hepes, pH 7.5, 50 mM MgCl2), 20 ng PI3Kα kinase (Millipore, USA), 12.5 μg phosphatidylinositol (PI), 10 μM ATP and 1 μCi ^32γ P dATP. Compounds of Example 1-40 were added at concentrations (stock solution was prepared in DMSO and subsequent dilutions were made in kinase buffer) as mentioned in the table. The reaction mixture was incubated at 30° C. for 20 minutes and was terminated by adding 1:1 mixture of MeOH and chloroform. The tube contents were mixed on a vortex mixer and centrifuged at 10000 rpm for 2 minutes. 10 μL of the organic (lower) phase was spotted on to a TLC plate (silica, mobile phase: n-propanol and 2 M glacial acetic acid in 65:35 ratio). The plates were dried and exposed to an X-ray film. The bands appearing as a result of ^32γ P incorporation in PI were quantitated using the QuantityOne (BioRad, USA) densitometry program. PI-103 (Calbiochem, USA) was used as a standard.

[8] = test system: PANC 1; assay: Cytotoxicity, propidium iodide assay, PANC 1; assay type: cell-based; details: Homo sapiens; Pancreatic, PANC 1, 48 hours treatment; read-out: IC50, C5a (PANC 1)
Procedure: as §1, §2, §3

[9] = test system: A549; assay: Cytotoxicity, propidium iodide assay, A549; assay type: cell-based; details: Homo sapiens; Lung, A549, 48 hours treatment; read-out: IC50, C1a (A549)
Procedure: as §1, §2, §3

[10] = test system: HCT116; assay: Cytotoxicity, propidium iodide assay, HCT116; assay type: cell-based; details: Homo sapiens, HCT-116; Colon, HCT116, 48 hours treatment; read-out: IC50, C4a (HCT116)
Procedure: as §1, §2, §3

T1 sequence (P42336 whole entry): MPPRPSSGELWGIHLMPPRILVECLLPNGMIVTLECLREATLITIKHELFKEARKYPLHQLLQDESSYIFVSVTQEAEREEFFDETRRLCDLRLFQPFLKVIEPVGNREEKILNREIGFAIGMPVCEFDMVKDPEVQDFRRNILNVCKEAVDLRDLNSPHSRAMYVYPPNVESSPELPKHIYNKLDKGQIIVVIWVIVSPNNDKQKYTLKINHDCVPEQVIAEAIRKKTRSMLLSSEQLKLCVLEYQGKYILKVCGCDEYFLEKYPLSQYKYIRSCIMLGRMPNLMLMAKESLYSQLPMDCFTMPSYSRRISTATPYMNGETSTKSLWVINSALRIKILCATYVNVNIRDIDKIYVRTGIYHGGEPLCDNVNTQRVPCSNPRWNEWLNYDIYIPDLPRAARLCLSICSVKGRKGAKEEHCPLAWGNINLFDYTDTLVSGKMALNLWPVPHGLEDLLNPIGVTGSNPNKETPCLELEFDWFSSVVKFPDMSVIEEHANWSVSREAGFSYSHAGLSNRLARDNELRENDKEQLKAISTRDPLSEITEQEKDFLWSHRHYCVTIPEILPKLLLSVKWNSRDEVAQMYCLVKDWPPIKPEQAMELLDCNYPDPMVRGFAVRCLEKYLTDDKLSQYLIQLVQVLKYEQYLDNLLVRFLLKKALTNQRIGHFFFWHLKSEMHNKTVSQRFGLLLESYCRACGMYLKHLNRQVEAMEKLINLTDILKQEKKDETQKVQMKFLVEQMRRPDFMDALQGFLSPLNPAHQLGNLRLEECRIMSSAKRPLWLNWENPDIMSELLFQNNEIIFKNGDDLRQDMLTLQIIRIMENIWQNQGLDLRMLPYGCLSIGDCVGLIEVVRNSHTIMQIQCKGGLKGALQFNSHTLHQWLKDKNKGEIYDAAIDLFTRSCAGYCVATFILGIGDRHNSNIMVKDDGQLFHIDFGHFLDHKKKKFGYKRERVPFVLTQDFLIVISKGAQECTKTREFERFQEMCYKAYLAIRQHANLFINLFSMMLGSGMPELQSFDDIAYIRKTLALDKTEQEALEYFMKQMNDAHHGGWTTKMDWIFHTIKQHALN
T1 sequence (P27986 whole entry partner): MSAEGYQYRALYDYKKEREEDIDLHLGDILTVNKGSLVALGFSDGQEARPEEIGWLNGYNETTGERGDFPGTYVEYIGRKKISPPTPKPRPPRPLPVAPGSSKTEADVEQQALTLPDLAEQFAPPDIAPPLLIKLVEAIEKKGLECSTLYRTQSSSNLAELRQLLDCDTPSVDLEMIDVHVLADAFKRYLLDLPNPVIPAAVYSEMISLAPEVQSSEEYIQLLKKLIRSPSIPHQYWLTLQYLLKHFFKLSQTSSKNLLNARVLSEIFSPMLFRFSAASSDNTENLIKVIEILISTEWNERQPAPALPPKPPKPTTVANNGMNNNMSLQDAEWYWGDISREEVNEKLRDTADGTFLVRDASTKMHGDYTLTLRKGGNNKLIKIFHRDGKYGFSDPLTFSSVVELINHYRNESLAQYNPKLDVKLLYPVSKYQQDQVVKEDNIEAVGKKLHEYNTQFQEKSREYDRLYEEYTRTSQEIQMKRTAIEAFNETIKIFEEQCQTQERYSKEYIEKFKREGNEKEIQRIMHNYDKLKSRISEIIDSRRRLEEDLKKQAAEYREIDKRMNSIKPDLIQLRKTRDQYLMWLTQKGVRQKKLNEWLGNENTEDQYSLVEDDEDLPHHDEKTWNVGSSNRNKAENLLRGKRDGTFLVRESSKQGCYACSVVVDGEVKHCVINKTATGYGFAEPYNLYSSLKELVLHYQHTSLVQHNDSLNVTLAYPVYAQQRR

Row | IC50 [4] | Structure (SMILES) | IC50 [2] | IC50 [9] | IC50 [10] | further results
1 | 10000 to 30000 nM | CC(C)(C#N)c1ccc(-n2c(=O)n(S(=O)(=O)c3ccc(OC(F)(F)F)cc3)c3cnc4ccc(Br)cc4c32)cc1 [Example 1, 2-(4-(8-Bromo-2-oxo-3-(4-(trifluoromethoxy)phenylsulfonyl)-2,3-dihydro-1H-imidazo[4,5-c]quinolin-1-yl)phenyl)-2-methylpropanenitrile] | ≤ 1000 nM |  |  | IC50 [1]: 1000 to 3000 nM; IC50 [3]: 1000 to 3000 nM; IC50 [5]: > 3000 nM; IC50 [6]: 1000 to 3000 nM
2 |  | CC(C)(C#N)c1ccc(-n2c(=O)n(S(=O)(=O)c3ccccc3)c3cnc4ccc(Br)cc4c32)cc1 [Example 7, 2-(4-(8-Bromo-2-oxo-3-(phenylsulfonyl)-2,3-dihydro-1H-imidazo[4,5-c]quinolin-1-yl)phenyl)-2-methylpropanenitrile] |  |  |  | inhibition at 0.1 µM [7]: 10 to 50%
3 |  | Cc1ccc(S(=O)(=O)n2c(=O)n(-c3ccc(C(C)(C)C#N)cc3)c3c4cc(Br)ccc4ncc32)cc1 [Example 8, 2-(4-(8-Bromo-2-oxo-3-tosyl-2,3-dihydro-1H-imidazo[4,5-c]quinolin-1-yl)phenyl)-2-methylpropanenitrile] |  |  |  | inhibition at 0.1 µM [7]: 10 to 50%
4 | 10000 to 30000 nM | CC(C)(C#N)c1ccc(-n2c(=O)n(S(=O)(=O)c3cccs3)c3cnc4ccc(Br)cc4c32)cc1 [Example 9, 2-(4-(8-Bromo-2-oxo-3-(thiophen-2-ylsulfonyl)-2,3-dihydro-1H-imidazo[4,5-c]quinolin-1-yl)phenyl)-2-methylpropanenitrile] | ≤ 1000 nM | 1000 to 3000 nM | > 3000 nM | IC50 [8]: > 3000 nM
5 | > 30000 nM | CC(C)(C#N)c1ccc(-n2c(=O)n(S(=O)(=O)c3cccc(F)c3)c3cnc4ccc(Br)cc4c32)cc1 [Example 10, 2-(4-(8-Bromo-3-(3-fluorophenylsulfonyl)-2-oxo-2,3-dihydro-1H-imidazo[4,5-c]quinolin-1-yl)phenyl)-2-methylpropanenitrile] | 1000 to 3000 nM | 1000 to 3000 nM | 1000 to 3000 nM | IC50 [8]: > 3000 nM
6 | > 30000 nM | CC(C)(C#N)c1ccc(-n2c(=O)n(S(=O)(=O)c3cccc4cccnc34)c3cnc4ccc(Br)cc4c32)cc1 [Example 11, 2-(4-(8-Bromo-2-oxo-3-(quinolin-8-ylsulfonyl)-2,3-dihydro-1H-imidazo[4,5-c]quinolin-1-yl)phenyl)-2-methylpropanenitrile] | > 3000 nM | > 3000 nM | > 3000 nM | IC50 [8]: > 3000 nM
7 | > 30000 nM | CC(=O)c1ccc(S(=O)(=O)n2c(=O)n(-c3ccc(C(C)(C)C#N)cc3)c3c4cc(Br)ccc4ncc32)cc1 [Example 12, 2-(4-(3-(4-Acetylphenylsulfonyl)-8-bromo-2-oxo-2,3-dihydro-1H-imidazo[4,5-c]quinolin-1-yl)phenyl)-2-methylpropanenitrile] | 1000 to 3000 nM | 1000 to 3000 nM | > 3000 nM | IC50 [1]: > 3000 nM; IC50 [6]: 1000 to 3000 nM
8 | 1000 to 10000 nM | COc1cccc(S(=O)(=O)n2c(=O)n(-c3ccc(C(C)(C)C#N)cc3)c3c4cc(Br)ccc4ncc32)c1 [Example 14, 2-(4-(8-Bromo-3-(3-methoxyphenylsulfonyl)-2-oxo-2,3-dihydro-1H-imidazo[4,5-c]quinolin-1-yl)phenyl)-2-methylpropanenitrile] |  |  |  | 
9 |  | CC(C)(C#N)c1ccc(-n2c(=O)n(S(=O)(=O)c3ccccc3C#N)c3cnc4ccc(Cl)cc4c32)cc1 [Example 20, 2-(8-Chloro-1-(4-(2-cyanopropan-2-yl)phenyl)-2-oxo-1H-imidazo[4,5-c]quinolin-3(2H)-ylsulfonyl)benzonitrile] |  |  |  | inhibition at 0.1 µM [7]: 10 to 50%
10 | 1000 to 10000 nM | Cc1cccc(S(=O)(=O)n2c(=O)n(-c3ccc(C(C)(C)C#N)cc3)c3c4cc(C)ccc4ncc32)c1 [Example 21, 2-Methyl-2-(4-(8-methyl-2-oxo-3-(m-tolylsulfonyl)-2,3-dihydro-1H-imidazo[4,5-c]quinolin-1-yl)phenyl)propanenitrile] |  | > 3000 nM | > 3000 nM | 
11 | 10000 to 30000 nM | Cc1ccc2ncc3c(c2c1)n(-c1ccc(C(C)(C)C#N)cc1)c(=O)n3S(=O)(=O)c1cccc(F)c1 [Example 22, 2-(4-(3-(3-Fluorophenylsulfonyl)-8-methyl-2-oxo-2,3-dihydro-1H-imidazo[4,5-c]quinolin-1-yl)phenyl)-2-methylpropanenitrile] |  | > 3000 nM | > 3000 nM | 
12 |  | Cc1ccc2ncc3c(c2c1)n(-c1ccc(C(C)(C)C#N)cc1)c(=O)n3S(=O)(=O)c1cc([N+](=O)[O-])ccc1C [Example 23, 2-Methyl-2-(4-(8-methyl-3-(2-methyl-5-nitrophenylsulfonyl)-2-oxo-2,3-dihydro-1H-imidazo[4,5-c]quinolin-1-yl)phenyl)propanenitrile] |  | > 3000 nM | > 3000 nM | 
13 |  | Cc1ccc2ncc3c(c2c1)n(-c1ccc(C(C)(C)C#N)cc1)c(=O)n3S(=O)(=O)c1cccc2cccnc12 [Example 24, 2-Methyl-2-(4-(8-methyl-2-oxo-3-(quinolin-8-ylsulfonyl)-2,3-dihydro-1H-imidazo[4,5-c]quinolin-1-yl)phenyl)propanenitrile] | > 3000 nM |  | > 3000 nM | IC50 [1]: > 3000 nM; IC50 [6]: > 3000 nM
14 |  | COc1ccc(NC(=O)n2c(=O)n(-c3ccc(C(C)(C)C#N)cc3)c3c4cc(Br)ccc4ncc32)cc1 [Example 31, 8-Bromo-1-(4-(2-cyanopropan-2-yl)phenyl)-N-(4-methoxyphenyl)-2-oxo-1H-imidazo[4,5-c]quinoline-3(2H)-carboxamide] | > 3000 nM | 1000 to 3000 nM | > 3000 nM | IC50 [8]: > 3000 nM
15 | > 30000 nM | CC(C)(C#N)c1ccc(-n2c(=O)n(C(=O)NCc3ccccc3)c3cnc4ccc(Br)cc4c32)cc1 [Example 32, N-benzyl-8-bromo-1-(4-(2-cyanopropan-2-yl)phenyl)-2-oxo-1H-imidazo[4,5-c]quinoline-3(2H)-carboxamide] |  |  |  | inhibition at 0.1 µM [7]: 10 to 50%
16 | ≤ 1000 nM | C/C=C/C(=O)n1c(=O)n(-c2ccc(C(C)(C)C#N)cc2)c2c3cc(C)ccc3ncc21 [Example 39, (E)-2-(4-(3-But-2-enoyl-8-methyl-2-oxo-2,3-dihydro-1H-imidazo[4,5-c]quinolin-1-yl)phenyl)-2-methylpropanenitrile] |  | > 3000 nM | > 3000 nM | 
